Experimental data from patent US9546141B2, “Salts” (Sprout Pharmaceuticals, Inc., priority 2008, dated 2017).

Assays:
[1] = Solubility of the crystalline salt forms in water; type: physicochemical; details: shaken 2 hours, filtered, UV-spectroscopy
Method: Solubility of the different crystalline salt forms in water was determined by adding […] of compound into 5 ml of water at room temperature. The mixture was vigorously shaken for 2 hours at room temperature. Afterwards the undissolved solid was removed by filtering through a 0.45 μm PTFE filter, in the filtrate the dissolved amount of compound was determined by UV-spectroscopy.

[2] = Hygroscopicity (IGAsorp water sorption monitor); type: physicochemical; details: room temperature
Method: IGAsorp water sorption monitor from Hiden Isochema was used for the analysis of the hygroscopical behaviour at room temperature. • humidity profile: from 10-90% r.h. in steps of 10%, sorption as well as desorption profiles were registered • weight-in quantity: 10-20 mg

solubility in water at room temperature [1] | hygroscopicity expressed in the uptake of water in the range of 10-90% relative humidity [2] | Structure (SMILES)
100 µg/mL | 0.15% | O=S(=O)(O)c1ccccc1.O=c1[nH]c2ccccc2n1CCN1CCN(c2cccc(C(F)(F)F)c2)CC1 [VIII, 1-[2-(4-(3-trifluoro-methyl-phenyl)piperazin-1-yl)ethyl]-2,3-dihydro-1H-benzimidazol-2-one besylate]
300 µg/mL | 0.24% | O=C1NS(=O)(=O)c2ccccc21.O=c1[nH]c2ccccc2n1CCN1CCN(c2cccc(C(F)(F)F)c2)CC1 [XI, 1-[2-(4-(3-trifluoro-methyl-phenyl)piperazin-1-yl)ethyl]-2,3-dihydro-1H-benzimidazol-2-one sacharinate]
90 µg/mL | 0.25% | Cc1ccc(S(=O)(=O)O)cc1.O=c1[nH]c2ccccc2n1CCN1CCN(c2cccc(C(F)(F)F)c2)CC1 [XXX, 1-[2-(4-(3-trifluoro-methyl-phenyl)piperazin-1-yl)ethyl]-2,3-dihydro-1H-benzimidazol-2-one tosylate]

Continued, compound first:

Structure (SMILES) | solubility in water at room temperature [1] | hygroscopicity expressed in the uptake of water in the range of 10-90% relative humidity [2]
O=C(O)C(=O)O.O=c1[nH]c2ccccc2n1CCN1CCN(c2cccc(C(F)(F)F)c2)CC1 [IX, 1-[2-(4-(3-trifluoro-methyl-phenyl)piperazin-1-yl)ethyl]-2,3-dihydro-1H-benzimidazol-2-one oxalate] | 1700 µg/mL | 0.7%
CS(=O)(=O)O.O=c1[nH]c2ccccc2n1CCN1CCN(c2cccc(C(F)(F)F)c2)CC1 [VII, 1-[2-(4-(3-trifluoro-methyl-phenyl)piperazin-1-yl)ethyl]-2,3-dihydro-1H-benzimidazol-2-one mesylate] | 1100 µg/mL | 3.4%
CCS(=O)(=O)O.O=c1[nH]c2ccccc2n1CCN1CCN(c2cccc(C(F)(F)F)c2)CC1 [XV, 1-[2-(4-(3-trifluoro-methyl-phenyl)piperazin-1-yl)ethyl]-2,3-dihydro-1H-benzimidazol-2-one ethansulfonate] | 1300 µg/mL | 0.32%
O=C(O)/C=C/C(=O)O.O=c1[nH]c2ccccc2n1CCN1CCN(c2cccc(C(F)(F)F)c2)CC1 [XXXI, 1-[2-(4-(3-trifluoro-methyl-phenyl)piperazin-1-yl)ethyl]-2,3-dihydro-1H-benzimidazol-2-one fumarate] | 500 µg/mL | 0.28%
CC1(C)C2CCC1(CS(=O)(=O)O)C(=O)C2.O=c1[nH]c2ccccc2n1CCN1CCN(c2cccc(C(F)(F)F)c2)CC1 [XXXII, 1-[2-(4-(3-trifluoro-methyl-phenyl)piperazin-1-yl)ethyl]-2,3-dihydro-1H-benzimidazol-2-one camphorsulfonate] | 700 µg/mL | 0.13%
O=C(O)CO.O=c1[nH]c2ccccc2n1CCN1CCN(c2cccc(C(F)(F)F)c2)CC1 [XXXIII, 1-[2-(4-(3-trifluoro-methyl-phenyl)piperazin-1-yl)ethyl]-2,3-dihydro-1H-benzimidazol-2-one glycolate] | 500 µg/mL | 0.20%
